Experimental data as given in the NIST ThermoML archive (doi:10.1016/j.jct.2007.02.002).
± gives the expanded uncertainty stated by the source.

Conditions: 101.33 kPa, Liquid; for speed of sound: Sing-around technique in a fixed-path interferometer

| Structure (SMILES) | mass density (288.15 K) [kg/m3] | speed of sound (288.15 K) [m/s] | mass density (293.15 K) [kg/m3] | speed of sound (293.15 K) [m/s] | mass density (298.15 K) [kg/m3] | speed of sound (298.15 K) [m/s] | mass density (303.15 K) [kg/m3] | speed of sound (303.15 K) [m/s] | mass density (308.15 K) [kg/m3] | speed of sound (308.15 K) [m/s] |
| --- | --- | --- | --- | --- | --- | --- | --- | --- | --- | --- |
| COC(C)(C)C [2-methoxy-2-methylpropane] | 745.79 ± 0.27 | 1082.4 ± 1.2 | 740.6 ± 0.28 | 1059.4 ± 1.2 | 735.35 ± 0.28 | 1036.1 ± 1.2 | 730.06 ± 0.28 | 1013 ± 1.2 | 724.73 ± 0.29 | 990.1 ± 1.1 |
| CCCCCC [hexane] | 663.87 ± 0.68 | 1121.4 ± 1.3 | 659.44 ± 0.69 | 1099 ± 1.3 | 654.95 ± 0.7 | 1076.3 ± 1.2 | 650.4 ± 0.7 | 1053.6 ± 1.2 | 645.82 ± 0.71 | 1031.1 ± 1.2 |
| CCCCO [butan-1-ol] | 813.24 ± 0.4 | 1273.7 ± 1.7 | 809.48 ± 0.4 | 1257 ± 1.7 | 805.67 ± 0.4 | 1239.8 ± 1.7 | 801.85 ± 0.4 | 1222.7 ± 1.7 | 797.99 ± 0.41 | 1205.9 ± 1.7 |
